Test results: patent US20260306460A1, “COMPOSITION FOR REMOVING AND INHIBITING SENESCENT CELLS, AND USES THEREOF” (LIFECEUTIX CO., LTD., priority 2023, published 2026)
Several values for one entry are separate records, joined by “and”; a condition that tells them apart may be missing. Equal values may be shown once. Read-outs that look alike come from different tables or passages of the source.

Tests used:
[1] = test system: senescent foreskin cells; test: Survival of senescent human cells treated with supernatant (secreted fluid) from death-induced cells, Example 13; format: cell-based; conditions: senescent treated cells; for viability at 30 µM: Homo sapiens, 72 h
Method: After 3 days, cell viability was measured using CellTiter-Glo Luminescent Cell Viability Assay (Promega) or light microscopy.
During this additional culture, by checking with an optical microscope, etc., the medium supernatants containing secreted fluid from normally proliferating and senescent cells in which cell death was induced were obtained. The obtained medium supernatant was replaced with the medium of normally proliferating and senescent cells, respectively, and cell survival rate was measured after 3 days.

[2] = test system: naturally aged C57BL6J mice; format: in vivo, mouse
[3] = test system: bleomycin-induced scleroderma C57BL6J mice; test: Bleomycin scleroderma in mice (p16, COL1A1 mRNA, dermal thickness), Example 24-2, Table 48; format: in vivo, mouse; conditions: daily for 21 days; for p16 mRNA: untreated 100 (±8.8); for Col1a1 mRNA: untreated 100 (±13.2); for Dermal Thickness: untreated 459 (±38.7)
Method: Eight-week-old male C57BL6J mice (KRIBB Laboratory Animal Resource Center) were acclimated to the experimental environment for one week. Then, 100 μl of the anticancer drug bleomyxin (1 mg/ml) was administered subcutaneously every other day to induce scleroderma for more than three weeks. Mice with scleroderma were randomly assigned to experimental and control groups. LX-403 was mixed with a 10% ethanol solution of PEG400 and administered orally at a concentration of 25 mg/kg daily for 21 days or administered directly to the skin at a concentration of 1 μM. LX-1801 was mixed with a solution of 4% DMSO, 30% PEG300, and 5% Tween80 in distilled water and administered subcutaneously at a concentration of 0.4 μM daily for 21 days. LX-2001 was mixed in PBS and administered intradermally at a concentration of 2 μM daily for 21 days. LX-2002 was mixed in distilled water with 4% DMSO, 30% PEG300, and 5% Tween80 and administered intradermally at a concentration of 2 μM daily for 21 days. […] LX-2005 was mixed in distilled water with 4% DMSO, 30% PEG300, and 5% Tween80 and administered intradermally at a concentration of 90 μM daily for 21 days. LX-2007 was mixed in distilled water with 4% DMSO, 30% PEG300, and 5% Tween80 and administered intradermally at a concentration of 90 μM daily for 21 days. […] LX-3002 was mixed with distilled water with 4% DMSO, 30% PEG300, 5% tween80 and administered orally at 10 mg/kg daily for 21 days. […] LX-5411 was mixed with 5% PBS and administered orally at 10 mg/kg daily for 21 days or subcutaneously at 3 μM. LX-5701 was mixed with PBS and administered orally at 360 mg/kg daily for 21 days. LX-6807 was mixed in saline and administered intraperitoneally at a concentration of 1 mg/kg daily for 21 days. The control group was administered only the solution in the same volume. After the end of drug administration, mice were sacrificed in the same manner as in Example 7-2 of WO2023-085787 A1, RNA was extracted from skin tissue, and the synthesized cDNA was used to perform and analyze the mRNA amounts of p16 and collagen (COL1A1) by qRT-PCR (quantitative real-time PCR). In addition, to measure the degree of bleomycin-induced skin hardening, skin frozen sections were stained with H/E (Hematoxylin/Eosin), and the thickness of the dermis was observed under an optical microscope.

[4] = test system: naturally aged C57BL6J mice; test: Cataract incidence in naturally aged mice, Example 21-15, Table 30; format: in vivo, mouse; conditions: orally twice a week, 360 mg/kg, until death, untreated aged 83
Method: (§1) 22-month-old female C57BL6J mice (KRIBB Laboratory Animal Resource Center) were acclimated to the experimental environment for one week, after which the aged mice were randomly assigned to experimental and control groups. Eight-week-old, non-aged mice served as controls. LX-403 was mixed in a 10% ethanol solution of PEG400 and administered orally at a concentration of 25 mg/kg daily for 21 days, or administered to the skin, joints, or eyes at a concentration of 1 μM. LX-1801 was mixed in distilled water with 4% DMSO, 30% PEG300, and 5% Tween80 and administered to the skin, joints, or eyes at a concentration of 0.4 μM daily for 21 days. LX-2001 was mixed in PBS and administered to the skin, joints, or eyes at a concentration of […] daily for 21 days. LX-2002 was mixed in distilled water with 4% DMSO, 30% PEG300, and 5% Tween80 and administered to the skin, joints, or eyes at a concentration of 2 μM daily for 21 days. […] LX-2005 was mixed in distilled water with 4% DMSO, 30% PEG300, and 5% Tween80 and administered to the skin, joints, or eyes at a concentration of 90 μM daily for 21 days. LX-2007 was mixed in distilled water with 4% DMSO, 30% PEG300, and 5% Tween80 and administered to the skin, joints, or eyes at a concentration of 90 μM daily for 21 days. […] LX-3002 was mixed in distilled water with 4% DMSO, 30% PEG300, and 5% Tween80 and administered orally at a concentration of 10 mg/kg daily for 21 days. […] LX-5411 was mixed in 5% PBS and administered orally at a concentration of 10 mg/kg daily for 21 days or administered to the skin, joints, or eyes at a concentration of 3 μM. LX-5701 was mixed in PBS and administered orally at a concentration of 360 mg/kg daily for 21 days. LX-6807 was mixed in saline and administered intraperitoneally at a concentration of 1 mg/kg daily for 21 days. LX-2101 or LX-2102 was mixed in PBS solution with 5% DMSO and administered intraperitoneally at a concentration of 20 mg/kg or 10 mg/kg, respectively, daily for 21 days. The control group received only the solution in the same volume. After the end of drug administration, the methods described in each example below were performed.
Cataracts, which occur with age, are a disease that causes visual impairment due to clouding of the lens and are a major cause of blindness. The mice of Example 21-1 were treated with the test compound mixed in PBS orally twice a week at a concentration of 360 mg/kg. Cataract development was assessed biweekly until death.

[5] = test system: naturally aged C57BL6J mice; test: Hot plate joint pain test in naturally aged mice, Example 21-12, Table 27; format: in vivo, mouse; conditions: hot plate 55° C., untreated aged 6.9 (±1.8)
Method: as §1
RNA was extracted from joint tissue as described in Example 7-2 of WO2023-085787 A1, and qRT-PCR was performed using the synthesized cDNA. […] To analyze joint pain due to joint aging, hotplate analysis was performed. Specifically, thermal pain thresholds were measured using a hot plate. After acclimating mice to a temperature of 30° C. for 10 minutes, the time required for hind paw licking or jumping responses to occur at 55° C. was measured. To prevent tissue damage, the response was measured for less than 30 seconds, and the average value was used from five measurements.

[6] = test system: NaIO3-induced retinal degenerative C57BL6J mice; test: NaIO3 retinal degeneration in mice (p16 mRNA, outer nuclear layer thickness), Example 29, Table 53; format: in vivo, mouse; conditions: daily for 21 days; for Outer nuclear layer thickness: untreated 27.4 (±1.3); for p16 mRNA: untreated 100%
Method: Then, retinal degenerative diseases were induced for more than 7 days by intravenous administration of 20 mg/kg of NaIO3, an oxidizing agent that induces retinal pigment epithelial cell death and retinal degeneration. Mice with retinal degenerative diseases were randomly assigned to experimental and control groups. […] The control group received only the solution in the same volume. […] In addition, frozen sections of the other eye tissue were stained with H/E (Hematoxylin/Eosin), and the thickness of the outer nuclear layer (ORL) was observed under an optical microscope. […] The mRNA amount after aging induction was calculated as 100% and compared with the mRNA amount of p16 after treatment with the test compound.

[7] = Table 8, supernatant from dying senescent cells treated at 30, 90 or 270 μM (as Example 11)
[8] = after 7 days, 6 mm punch dorsal skin wounds, naturally aged mice, untreated aged 3.2 (±0.4)

SMILES | Survival [1, 7] | Wound size (mm) [2, 8] | p16 mRNA [3] | Col1a1 mRNA [3] | Dermal Thickness [3] | Cataract incidence (%) [4] | Response time (s) [5] | Outer nuclear layer thickness [6] | p16 mRNA [6] | viability at 30 µM ([1]; supernatant from death-induced proliferating cells, 3 days) | viability at 30 µM ([1]; supernatant from death-induced senescent cells, 3 days) | Survival ([1]; supernatant from No Cells, 3 days) | wound/damage healing improvement ([2]; mouse, in vivo) | Wound size (mm) ([2]; mouse, in vivo)
O=C(C(C[N+](=O)[O-])=NO)N1CCN(C(c2ccc(Cl)cc2)c2ccc(Cl)cc2)CC1 [LX-403] | 45.1 | 1.9 (±0.2) mm | 34.7 (±4.1) % | 45.7 (±4.5) % | 356 (±36.3) μm | 57% | 5.6 (±0.7) s | 40.1 (±1.9) μm | 34 (±2.2) % |  |  |  |  | 
COC(=O)c1ccc([C@H]2c3[nH]c4ccccc4c3C[C@H](C(=O)OC)N2C(=O)CCl)cc1 [LX-405] |  |  |  |  |  |  |  |  |  | 41.3% | 52.7% | 102.8 (±4.6) % |  | 
S=C(N/N=C1\CCCc2cccnc21)N1CCN(c2ccccn2)CC1 [LX-801] | 52.7 |  |  |  |  |  |  |  |  |  |  |  |  | 
C[C@@H]1CC[C@@]23C[C@H](O)C(=O)[C@@]2(O)[C@]1(C)[C@H](OC(=O)CCl)C[C@@H](C1=CCn2c(=O)n(-c4ccccc4)c(=O)n2C1)[C@@H]3C [LX-1801, (2S,3aS,4S,5R,7R,8S,8aS,11R)-7-(1,3-Dioxo-2-phenyl-2,3,5,8-tetrahydro-1H-[1,2,4]triazolo[1,2-a]pyridazin-6-yl)-2,3a-dihydroxy-4,8,11-trimethyl-3-oxooctahydro-1H-4,8a-propanoazulen-5-yl 2-Chloroacetate] | 41.6 | 2.5 (±0.6) mm | 35.4 (±5.6) % | 47.8 (±4.7) % | 418 (±42.3) μm | 68% | 4.9 (±1.1) s | 32.7 (±2.6) μm | 42 (±4.4) % |  |  |  |  | 
C[C@H]1[C@H](C)CC[C@]2(C(=O)O)CC[C@]3(C)C(=CC[C@@H]4[C@@]5(C)CC[C@H](O)C(C)(C)[C@@H]5CC[C@]43C)[C@H]12 [LX-2001, Ursolic acid] | 57.8 | 2.5 (±0.5) mm | 64.2 (±4.4) % | 62.8 (±5.6) % | 394 (±78.4) μm | 75% | 5.0 (±0.9) s | 34.1 (±5.1) μm | 61 (±4.1) % |  |  |  |  | 
C[C@H]1[C@H](C)CC[C@]2(C(=O)O)CC[C@]3(C)C(=CC[C@@H]4[C@@]5(C)C[C@@H](O)[C@H](O)C(C)(C)[C@@H]5CC[C@]43C)[C@H]12 [LX-2002, Corosolic acid] | 58.3 | 2.7 (±0.4) mm | 51.3 (±2.6) % | 71.2 (±4.2) % | 427 (±60.1) μm | 71% | 5.3 (±0.6) s | 30.1 (±7.8) μm | 60 (±3.8) % |  |  |  |  | 
CC1(C)CC[C@]2(NC(=O)C(C)(F)F)CC[C@]3(C)[C@H](C(=O)C=C4[C@@]5(C)C=C(C#N)C(=O)C(C)(C)[C@@H]5CC[C@]43C)[C@@H]2C1 [LX-2101, Omaveloxolone] | 39.7 | 1.9 (±0.3) mm |  |  |  | 77% | 5.1 (±0.4) s | 29.4 (±7.5) μm and 39 (±4.1) μm | 80 (±2.7) % and 67 (±7.0) % |  |  |  |  | 
COC(=O)[C@]12CCC(C)(C)C[C@H]1[C@H]1C(=O)C=C3[C@@]4(C)C=C(C#N)C(=O)C(C)(C)[C@@H]4CC[C@@]3(C)[C@]1(C)CC2 [LX-2102, Bardoxolone methyl] | 46.3 |  |  |  |  |  |  |  |  |  |  |  | damage treatment and recovery | 
CCCC\C=C/C=C/C=C\CCCCCCCC(=O)O [LX-2707, Punicic acid] |  | 2.7 (±0.3) mm | 67.5 (±4.7) % | 64.1 (±2.0) % | 389 (±23.6) μm | 48% | 5.4 (±0.6) s | 31.8 (±1.7) μm | 76 (±5.4) % |  |  |  |  | 
COC(=O)[C@H]1Cc2c([nH]c3ccccc23)[C@H](c2ccc(S(C)(=O)=O)cc2)N1C(=O)CCl [LX-5401, methyl (1S,3R)-2-(2-chloroacetyl)-1-(4-(methylsulfonyl)phenyl)-2,3,4,9-tetrahydro-1H-pyrido[3,4-b]indole-3-carboxylate] |  | 2.3 (±0.3) mm | 61.2 (±6.7) % | 74.6 (±2.4) % | 401 (±46.3) μm | 69% | 5.9 (±0.2) s |  |  |  |  |  |  | 
C#CC(=O)N1[C@@H](CCCC)Cc2cc(OC)ccc2[C@@H]1c1ccc(NC23CC4CC(CC(C4)C2)C3)cc1 [LX-5411] |  | 1.6 (±0.1) mm | 43.8 (±3.0) % | 55.3 (±1.6) % | 376 (±47.1) μm | 61% | 4.7 (±0.4) s | 43.7 (±4.2) μm | 43 (±2.5) % |  |  |  |  | 
O=C1C2CCN(CC2)C1CNC(=O)C(F)(F)F (centres unmarked) [LX-5701] |  |  | 64 (±9.4) % | 59.7 (±17.3) % | 358 (±21.4) μm | 64% | 4.6 (±1.3) s | 52.7 (±3.2) μm | 67 (±7.3) % |  |  |  |  | 1.9 (±0.2) mm
Cc1cccc([C@H](C)c2cnc[nH]2)c1C [LX-6807, Dexmedetomidine] |  | 1.7 (±0.1) mm | 64.7 (±3.5) % | 37.6 (±2.5) % | 315 (±29.8) μm | 61% | 4.8 (±0.4) s | 50.8 (±3.2) μm | 64 (±4.4) % |  |  |  |  | 
